Source: patent publication US8143240B2, “17α, 21-dihydroxypregnene esters as antiandrogenic agents” (Cosmo S.p.A., priority 2001, dated 2012)

Test system: flank organ
Test: topical antiandrogenic activity test (hamster flank organ, Voigt and Hsia)
Type: in vivo, hamsters
Settings: 21 days
Method: The test was carried out on sexually immature female hamsters aged 6-8 weeks and weighing 65-90 grams.
At the beginning of the tests, the back of each animal was shaved to evidence the respective flank organ bilaterally. Animals were then subdivided into homogeneous groups and treated daily for 21 consecutive days. The tested steroids were dissolved at concentrations ranging from 100 to 400 micrograms in 50 microliters of an acetone solution containing 4 micrograms of testosterone propionate (TP) or 4 micrograms of dihydrotestosterone (DHT). 50 microliters of the solutions were applied to the right flank organ, while the contralateral organ used as individual control received only acetone (50 microliters). Control groups received TP or DHT alone, following the same procedures.
At the end of the tests, the animals were killed under ether anesthesia and the whole skine of the back was taken. The area of both flank organs was measured, separately, with transillumination. The mean differences between areas treated with the tested steroids and those treated with the carrier alone were calculated for each group, and said mean differences were compared, as inhibition percentages, to the mean differences between the areas in the control groups treated with either TP or DHT.

[1] = androgen alone (control group), 4 μg daily, topical
[2] = DHT 4 μg + compound 400 μg daily, topical on right flank organ, female hamsters
[3] = TP 4 μg + compound 400 μg daily, topical on right flank organ, female hamsters
[4] = versus DHT control, DHT 4 μg + compound 400 μg daily, topical
[5] = versus TP control, TP 4 μg + compound 400 μg daily, topical

| SMILES | Mean difference of the areas [1] | Mean difference of the areas [2] | Mean difference of the areas [3] | % inhibition [4] | % inhibition [5] |
| --- | --- | --- | --- | --- | --- |
| C[C@]12CCC(=O)C[C@@H]1CC[C@@H]1[C@@H]2CC[C@]2(C)[C@@H](O)CC[C@@H]12 [DHT, dihydrotestosterone, reference compound] | 20.8 ± 2.5 mm^2 | – | – | – | – |
| CCC(=O)O[C@H]1CC[C@H]2[C@@H]3CCC4=CC(=O)CC[C@]4(C)[C@H]3CC[C@]12C [TP, testosterone propionate, reference compound] | 22.7 ± 2.3 mm^2 | – | – | – | – |
| CCCC(=O)OCC(=O)[C@@]1(OC(=O)CCC)CC[C@H]2[C@@H]3CCC4=CC(=O)CC[C@]4(C)C3=CC[C@@]21C [Ex. 1, 17α,21-dibutanoyl-pregna-4,9-diene-3,20-dione] | – | 3.7 ± 0.7 mm^2 | 2.4 ± 1.1 mm^2 | 82% | 89% |
| CCC(=O)O[C@]1(C(=O)CO)CC[C@H]2[C@@H]3CCC4=CC(=O)CC[C@]4(C)C3=CC[C@@]21C [Compound A, 17α-propionyl-21-hydroxy-pregna-4,9-diene-3,20-dione] | – | 9.7 ± 1.8 mm^2 | 3.7 ± 1.1 mm^2 | 53% | 84% |
| CCCC(=O)OCC(=O)[C@@]1(O)CC[C@H]2[C@@H]3CCC4=CC(=O)CC[C@]4(C)C3=CC[C@@]21C [Ex. 2, 17α-hydroxy-21-butanoyl-pregna-4,9-diene-3,20-dione] | – | 4.1 ± 0.5 mm^2 | 3.3 ± 1.2 mm^2 | 80% | 85% |
